{
  "source": "paper PMC10176470",
  "about": "“Engaging a Non-catalytic Cysteine Residue Drives Potent and Selective Inhibition of Caspase-6” (Journal of the American Chemical Society, 2023)",
  "type_in_all_cases": "cell-based",
  "key": {"[1]": {"target": "proteins of HEK293T cells transiently overexpressing caspase-6 (Homo sapiens, UniProt O14880)", "sequence (O14880 whole entry)": "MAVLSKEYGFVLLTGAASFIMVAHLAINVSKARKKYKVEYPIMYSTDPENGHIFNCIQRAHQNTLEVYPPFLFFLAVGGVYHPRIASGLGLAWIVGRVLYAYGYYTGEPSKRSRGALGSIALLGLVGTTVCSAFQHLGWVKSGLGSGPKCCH", "conditions": "exp_ref Probe; protein MGST3 (O14880); analysis C6"}, "[2]": {"target": "proteins of HEK293T cells transiently overexpressing caspase-6 (Homo sapiens, UniProt P02533)", "sequence (P02533 whole entry)": "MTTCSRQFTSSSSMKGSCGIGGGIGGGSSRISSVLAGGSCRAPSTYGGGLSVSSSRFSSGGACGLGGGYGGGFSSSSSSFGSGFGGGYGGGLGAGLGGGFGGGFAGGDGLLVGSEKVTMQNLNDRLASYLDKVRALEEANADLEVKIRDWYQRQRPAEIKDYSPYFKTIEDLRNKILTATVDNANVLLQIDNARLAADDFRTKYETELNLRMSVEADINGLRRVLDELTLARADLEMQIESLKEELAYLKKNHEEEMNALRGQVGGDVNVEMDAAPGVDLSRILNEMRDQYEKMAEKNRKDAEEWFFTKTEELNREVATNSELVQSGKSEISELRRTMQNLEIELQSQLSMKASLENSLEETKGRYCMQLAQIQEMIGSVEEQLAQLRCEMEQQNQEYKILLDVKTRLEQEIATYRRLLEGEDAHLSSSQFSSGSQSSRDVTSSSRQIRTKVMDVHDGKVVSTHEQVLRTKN", "conditions": "Probe; protein KRT14 P02533"}, "[3]": {"target": "proteins of HEK293T cells transiently overexpressing caspase-6 (Homo sapiens, UniProt P04264)", "sequence (P04264 whole entry)": "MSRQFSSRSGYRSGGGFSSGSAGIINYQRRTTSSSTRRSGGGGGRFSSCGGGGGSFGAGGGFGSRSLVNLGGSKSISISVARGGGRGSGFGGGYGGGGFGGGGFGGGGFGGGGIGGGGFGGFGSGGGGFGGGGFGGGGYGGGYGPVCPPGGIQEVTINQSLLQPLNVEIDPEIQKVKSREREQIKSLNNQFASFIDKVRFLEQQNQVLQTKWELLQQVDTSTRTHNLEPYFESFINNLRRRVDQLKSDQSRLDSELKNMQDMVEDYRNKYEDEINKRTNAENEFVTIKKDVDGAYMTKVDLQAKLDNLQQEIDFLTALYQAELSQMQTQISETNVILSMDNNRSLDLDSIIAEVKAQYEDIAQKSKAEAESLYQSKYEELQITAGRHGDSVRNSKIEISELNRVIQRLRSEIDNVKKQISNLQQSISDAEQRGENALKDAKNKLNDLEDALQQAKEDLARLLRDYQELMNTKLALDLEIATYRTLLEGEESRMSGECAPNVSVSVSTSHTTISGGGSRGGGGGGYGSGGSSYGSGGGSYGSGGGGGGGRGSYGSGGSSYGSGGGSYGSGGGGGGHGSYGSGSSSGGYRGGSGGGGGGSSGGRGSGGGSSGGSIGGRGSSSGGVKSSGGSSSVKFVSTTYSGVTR", "conditions": "Probe; protein KRT1 P04264"}, "[4]": {"target": "proteins of HEK293T cells transiently overexpressing caspase-6 (Homo sapiens, UniProt P06748)", "sequence (P06748 whole entry)": "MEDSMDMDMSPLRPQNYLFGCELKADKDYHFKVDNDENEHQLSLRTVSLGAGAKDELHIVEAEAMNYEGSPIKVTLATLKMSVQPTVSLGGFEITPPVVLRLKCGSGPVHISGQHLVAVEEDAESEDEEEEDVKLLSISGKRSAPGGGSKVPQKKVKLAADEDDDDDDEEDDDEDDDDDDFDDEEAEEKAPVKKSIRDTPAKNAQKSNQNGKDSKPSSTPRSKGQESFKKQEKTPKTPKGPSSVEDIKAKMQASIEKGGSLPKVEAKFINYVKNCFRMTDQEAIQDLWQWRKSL", "conditions": "protein NPM1 (P06748)"}, "[5]": {"target": "proteins of HEK293T cells transiently overexpressing caspase-6 (Homo sapiens, UniProt P12277)", "sequence (P12277 whole entry)": "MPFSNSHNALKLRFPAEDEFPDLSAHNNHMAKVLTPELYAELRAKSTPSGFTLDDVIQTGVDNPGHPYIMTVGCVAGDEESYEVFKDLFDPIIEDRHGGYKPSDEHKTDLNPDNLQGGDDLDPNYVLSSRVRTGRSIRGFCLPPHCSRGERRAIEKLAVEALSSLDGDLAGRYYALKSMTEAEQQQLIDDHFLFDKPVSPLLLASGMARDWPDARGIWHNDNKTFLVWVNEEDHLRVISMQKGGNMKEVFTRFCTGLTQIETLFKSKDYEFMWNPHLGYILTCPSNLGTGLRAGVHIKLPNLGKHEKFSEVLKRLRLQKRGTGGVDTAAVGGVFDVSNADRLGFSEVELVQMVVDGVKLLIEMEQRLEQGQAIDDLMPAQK", "conditions": "protein CKB (P12277)"}, "[6]": {"target": "proteins of HEK293T cells transiently overexpressing caspase-6 (Homo sapiens, UniProt P13639)", "conditions": "protein EEF2 (P13639)"}, "[7]": {"target": "T1, proteins of HEK293T cells transiently overexpressing caspase-6 (Homo sapiens, UniProt P22234)", "T1 sequence (P22234 1-425)": "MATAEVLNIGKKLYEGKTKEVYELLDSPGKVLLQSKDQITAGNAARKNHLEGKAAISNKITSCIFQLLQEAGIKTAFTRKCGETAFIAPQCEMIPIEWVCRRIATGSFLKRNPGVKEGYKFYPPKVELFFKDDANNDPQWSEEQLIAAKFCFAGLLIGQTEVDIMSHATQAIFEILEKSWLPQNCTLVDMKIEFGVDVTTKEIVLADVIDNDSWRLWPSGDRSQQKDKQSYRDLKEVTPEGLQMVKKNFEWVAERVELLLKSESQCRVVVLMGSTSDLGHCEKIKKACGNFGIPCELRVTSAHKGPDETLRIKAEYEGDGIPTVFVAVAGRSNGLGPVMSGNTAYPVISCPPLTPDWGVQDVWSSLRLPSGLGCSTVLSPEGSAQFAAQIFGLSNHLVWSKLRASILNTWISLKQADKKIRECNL", "conditions": "protein PAICS (P22234)"}, "[8]": {"target": "T2, proteins of HEK293T cells transiently overexpressing caspase-6 (Homo sapiens, UniProt P29401)", "T2 sequence (P29401 1-623)": "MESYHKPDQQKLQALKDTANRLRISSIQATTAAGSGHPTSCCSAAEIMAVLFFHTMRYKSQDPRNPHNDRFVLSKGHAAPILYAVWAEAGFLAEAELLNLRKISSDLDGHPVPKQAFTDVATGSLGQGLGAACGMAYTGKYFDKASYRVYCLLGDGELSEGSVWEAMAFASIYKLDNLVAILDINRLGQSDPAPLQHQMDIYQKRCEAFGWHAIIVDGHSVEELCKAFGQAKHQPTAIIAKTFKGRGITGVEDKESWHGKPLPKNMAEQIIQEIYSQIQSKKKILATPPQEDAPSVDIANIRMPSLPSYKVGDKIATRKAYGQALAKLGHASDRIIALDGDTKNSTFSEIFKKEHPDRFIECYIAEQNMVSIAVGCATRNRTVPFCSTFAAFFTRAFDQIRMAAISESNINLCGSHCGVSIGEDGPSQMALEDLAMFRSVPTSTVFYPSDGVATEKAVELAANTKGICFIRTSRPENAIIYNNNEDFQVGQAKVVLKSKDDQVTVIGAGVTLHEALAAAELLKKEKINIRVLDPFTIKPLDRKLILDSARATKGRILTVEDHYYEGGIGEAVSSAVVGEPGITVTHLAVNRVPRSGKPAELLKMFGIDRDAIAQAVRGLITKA"}, "[9]": {"target": "proteins of HEK293T cells transiently overexpressing caspase-6 (Homo sapiens, UniProt P33993)", "sequence (P33993 whole entry)": "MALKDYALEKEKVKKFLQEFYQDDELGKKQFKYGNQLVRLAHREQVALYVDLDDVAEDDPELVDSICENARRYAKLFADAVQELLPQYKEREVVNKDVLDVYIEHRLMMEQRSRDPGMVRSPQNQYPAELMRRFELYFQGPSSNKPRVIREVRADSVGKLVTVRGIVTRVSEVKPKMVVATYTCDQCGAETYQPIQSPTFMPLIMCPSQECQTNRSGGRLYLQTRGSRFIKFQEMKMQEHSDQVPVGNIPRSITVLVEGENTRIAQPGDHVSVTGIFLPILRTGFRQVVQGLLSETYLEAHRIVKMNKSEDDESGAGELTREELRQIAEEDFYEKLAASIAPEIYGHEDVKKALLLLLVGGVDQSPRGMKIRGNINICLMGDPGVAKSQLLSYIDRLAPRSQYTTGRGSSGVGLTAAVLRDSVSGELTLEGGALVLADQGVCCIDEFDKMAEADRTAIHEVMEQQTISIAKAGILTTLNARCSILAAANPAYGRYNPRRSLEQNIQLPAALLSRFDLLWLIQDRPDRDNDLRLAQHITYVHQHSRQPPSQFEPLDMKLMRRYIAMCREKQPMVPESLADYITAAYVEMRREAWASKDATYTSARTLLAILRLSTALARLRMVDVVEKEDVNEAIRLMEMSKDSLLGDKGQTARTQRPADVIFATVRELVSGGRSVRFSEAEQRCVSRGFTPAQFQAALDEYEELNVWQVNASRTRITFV", "conditions": "Probe; protein MCM7 P33993"}, "[10]": {"target": "proteins of HEK293T cells transiently overexpressing caspase-6 (Homo sapiens, UniProt P35527)", "conditions": "Probe; protein KRT9 P35527"}, "[11]": {"target": "proteins of HEK293T cells transiently overexpressing caspase-6 (Homo sapiens, UniProt P37837)", "conditions": "Probe; protein TALDO1 P37837"}, "[12]": {"target": "proteins of HEK293T cells transiently overexpressing caspase-6 (Homo sapiens, UniProt P60842)", "sequence (P60842 whole entry)": "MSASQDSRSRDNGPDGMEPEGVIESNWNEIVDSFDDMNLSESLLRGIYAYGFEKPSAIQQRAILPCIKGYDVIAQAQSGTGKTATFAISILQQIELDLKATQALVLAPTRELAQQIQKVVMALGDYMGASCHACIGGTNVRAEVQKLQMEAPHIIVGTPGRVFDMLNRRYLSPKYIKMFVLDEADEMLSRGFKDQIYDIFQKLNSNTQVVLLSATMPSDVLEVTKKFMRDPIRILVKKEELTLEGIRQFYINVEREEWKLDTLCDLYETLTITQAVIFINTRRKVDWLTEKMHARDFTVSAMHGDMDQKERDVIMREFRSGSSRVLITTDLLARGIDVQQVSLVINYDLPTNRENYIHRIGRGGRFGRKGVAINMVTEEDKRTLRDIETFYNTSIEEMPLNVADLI", "conditions": "exp_ref Probe; protein EIF4A1 (P60842); analysis C6"}, "[13]": {"target": "proteins of HEK293T cells transiently overexpressing caspase-6 (Homo sapiens, UniProt P62244)", "conditions": "exp_ref Probe; protein RPS15A (P62244); analysis C6"}, "[14]": {"target": "proteins of HEK293T cells transiently overexpressing caspase-6 (Homo sapiens, UniProt Q16576)", "sequence (Q16576 whole entry)": "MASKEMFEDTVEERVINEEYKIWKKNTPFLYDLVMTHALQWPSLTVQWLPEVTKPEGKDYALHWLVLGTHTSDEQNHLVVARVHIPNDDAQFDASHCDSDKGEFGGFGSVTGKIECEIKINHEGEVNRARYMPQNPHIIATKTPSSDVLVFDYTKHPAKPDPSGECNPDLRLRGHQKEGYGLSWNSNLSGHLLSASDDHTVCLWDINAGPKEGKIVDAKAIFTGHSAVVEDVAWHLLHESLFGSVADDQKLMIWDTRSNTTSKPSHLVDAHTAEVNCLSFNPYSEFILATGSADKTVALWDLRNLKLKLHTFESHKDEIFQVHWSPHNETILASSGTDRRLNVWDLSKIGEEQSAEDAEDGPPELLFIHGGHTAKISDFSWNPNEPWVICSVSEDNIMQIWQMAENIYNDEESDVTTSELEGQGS", "conditions": "exp_ref Probe; protein RBBP7 (Q16576); analysis C6"}, "[15]": {"target": "proteins of HEK293T cells transiently overexpressing caspase-6 (Homo sapiens, UniProt Q96F25)", "sequence (Q96F25 whole entry)": "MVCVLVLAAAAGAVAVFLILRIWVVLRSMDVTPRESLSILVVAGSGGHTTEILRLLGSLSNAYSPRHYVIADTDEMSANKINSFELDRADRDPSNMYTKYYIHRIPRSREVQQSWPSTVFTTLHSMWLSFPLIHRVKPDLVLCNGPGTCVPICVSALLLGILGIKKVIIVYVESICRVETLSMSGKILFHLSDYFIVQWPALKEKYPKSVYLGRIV", "conditions": "Probe; protein ALG14 Q96F25"}, "[16]": {"target": "proteins of HEK293T cells transiently overexpressing caspase-6 (Homo sapiens, UniProt Q9H307)", "conditions": "exp_ref Probe; protein PNN (Q9H307); analysis C6"}, "[17]": {"target": "proteins of HEK293T cells transiently overexpressing caspase-6 (Homo sapiens, UniProt Q9UQE7)", "sequence (Q9UQE7 whole entry)": "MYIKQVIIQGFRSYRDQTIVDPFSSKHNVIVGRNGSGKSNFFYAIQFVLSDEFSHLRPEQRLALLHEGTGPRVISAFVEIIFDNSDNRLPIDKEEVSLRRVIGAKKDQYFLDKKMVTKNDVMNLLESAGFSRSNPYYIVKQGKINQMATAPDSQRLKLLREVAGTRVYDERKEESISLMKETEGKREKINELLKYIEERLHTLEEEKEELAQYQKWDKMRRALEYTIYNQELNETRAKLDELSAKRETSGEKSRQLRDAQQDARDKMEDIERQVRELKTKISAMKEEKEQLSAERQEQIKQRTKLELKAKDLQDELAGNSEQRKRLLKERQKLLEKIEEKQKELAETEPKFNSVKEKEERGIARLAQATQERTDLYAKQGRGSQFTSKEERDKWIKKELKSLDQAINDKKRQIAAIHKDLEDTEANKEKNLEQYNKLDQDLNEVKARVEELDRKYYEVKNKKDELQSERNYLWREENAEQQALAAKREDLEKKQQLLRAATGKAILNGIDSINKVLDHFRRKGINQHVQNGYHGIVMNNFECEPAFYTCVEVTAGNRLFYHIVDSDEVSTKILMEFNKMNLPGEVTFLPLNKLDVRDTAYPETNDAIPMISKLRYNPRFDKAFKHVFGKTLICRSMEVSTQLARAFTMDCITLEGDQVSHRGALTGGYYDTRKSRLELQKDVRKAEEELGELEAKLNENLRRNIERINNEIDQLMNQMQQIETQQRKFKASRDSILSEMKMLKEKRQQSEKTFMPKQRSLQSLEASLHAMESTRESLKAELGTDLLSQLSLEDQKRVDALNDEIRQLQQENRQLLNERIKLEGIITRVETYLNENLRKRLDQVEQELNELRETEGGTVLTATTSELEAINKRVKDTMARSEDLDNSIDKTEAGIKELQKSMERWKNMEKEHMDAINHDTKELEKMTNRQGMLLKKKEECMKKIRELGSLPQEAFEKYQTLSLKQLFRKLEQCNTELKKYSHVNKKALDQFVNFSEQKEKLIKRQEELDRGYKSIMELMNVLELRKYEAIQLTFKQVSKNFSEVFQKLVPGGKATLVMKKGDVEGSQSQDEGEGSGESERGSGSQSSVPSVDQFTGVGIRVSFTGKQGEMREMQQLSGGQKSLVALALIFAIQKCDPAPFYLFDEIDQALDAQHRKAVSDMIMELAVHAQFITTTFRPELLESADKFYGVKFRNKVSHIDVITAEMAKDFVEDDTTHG", "conditions": "protein SMC3 (Q9UQE7), analysis C6"}},
  "data": [
    {"smiles": "C#CCOc1ccc([C@@H]2C[C@@H](C(=O)Nc3ccc(OC(F)(F)F)cc3)CN(S(=O)(=O)C=C)C2)cc1", "note": "(relative stereo) [13-t]", "values": [
      {"measurement": "enrich.exp.med", "setting": "[1]", "result": 1.143},
      {"measurement": "enrich.exp.med", "setting": "[2]", "result": -2.018},
      {"measurement": "enrich.exp.med", "setting": "[3]", "result": -8.014},
      {"measurement": "enrich.exp.med", "setting": "[4]; exp_ref Probe, analysis C6", "result": -0.3931},
      {"measurement": "enrich.exp.med.lin", "setting": "[4]", "result": 0.7615},
      {"measurement": "enrich.exp.med.log2", "setting": "[4]", "result": -0.3931},
      {"measurement": "enrich.exp.med", "setting": "[5]; exp_ref Probe, analysis C6", "result": 0.5567},
      {"measurement": "enrich.exp.med.lin", "setting": "[5]", "result": 1.4709},
      {"measurement": "enrich.exp.med.log2", "setting": "[5]", "result": 0.5567},
      {"measurement": "enrich.exp.med", "setting": "[6]; exp_ref Probe, analysis C6", "result": 0.2961},
      {"measurement": "enrich.exp.med.lin", "setting": "[6]", "result": 1.228},
      {"measurement": "enrich.exp.med.log2", "setting": "[6]", "result": 0.2961},
      {"measurement": "enrich.exp.med", "setting": "[7]; exp_ref Probe, analysis C6", "result": 0.8585},
      {"measurement": "enrich.exp.med.lin", "setting": "[7]", "result": 1.813},
      {"measurement": "enrich.exp.med.log2", "setting": "[7]", "result": 0.8585},
      {"measurement": "enrich.exp.med", "setting": "[8]; Probe, protein TKT P29401", "result": -0.5472},
      {"measurement": "enrich.exp.med.lin", "setting": "[8]; protein TKT (P29401)", "result": 0.6843},
      {"measurement": "enrich.exp.med.log2", "setting": "[8]; protein TKT (P29401)", "result": -0.5472},
      {"measurement": "enrich.exp.med", "setting": "[9]", "result": -1.046},
      {"measurement": "enrich.exp.med", "setting": "[10]", "result": -6.8322},
      {"measurement": "enrich.exp.med", "setting": "[11]", "result": -1.23},
      {"measurement": "enrich.exp.med", "setting": "[12]", "result": 0.8215},
      {"measurement": "enrich.exp.med", "setting": "[13]", "result": 0.1255},
      {"measurement": "enrich.exp.med", "setting": "[14]", "result": 0.6141},
      {"measurement": "enrich.exp.med", "setting": "[15]", "result": -1.074},
      {"measurement": "enrich.exp.med", "setting": "[16]", "result": 0.5676},
      {"measurement": "enrich.exp.med.lin", "setting": "[17]; Expt Probe", "result": 14.5893},
      {"measurement": "enrich.exp.med.log2", "setting": "[17]; Expt Probe", "result": 3.867},
      {"measurement": "enrich.exp.med", "setting": "[17]; exp_ref Probe", "result": 3.867}
    ]}
  ]
}
